Test results published in PubChem BioAssay AID264 (DTP/NCI, 2004).
Values joined by “and” are separate entries in the source; they are usually repeats but may differ in a detail not shown here. Identical values can stand only once. Records with an inconclusive call do not appear.

Test system: nude mice, LX-1 lung xenograft intrarenal, tumor weight T/C
Experiment: NCI In Vivo Anticancer Drug Screen. Data for tumor model Human Lung LX-1 Xenograft (intrarenal inoculation) in NU/NU Swiss (nude) mice
Conditions: endpoint: mean tumor weight change, higher = larger tumour
Summary of the method: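 Compound-treated mice carrying transplanted tumors were compared with vehicle-treated controls. Tumor size was the measured end point, and the value is the treated-group measurement divided by the control-group measurement (T/C).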

[1] = dose: 150.0 mg/kg/injection, schedule: Q04DX003 (sc), vehicle: saline with Tween-80
[2] = dose: 300.0 mg/kg/injection, schedule: Q04DX003 (sc), vehicle: saline with Tween-80

COc1cc([C@@H]2c3cc4c(c(O)c3C[C@H]3COC(=O)[C@@H]32)OCO4)cc(OC)c1O
T/C (dose: 0.06 mg/kg/injection, schedule: Q01DX010 (sc), vehicle: saline): 97 % of control
T/C (dose: 0.12 mg/kg/injection, schedule: Q01DX010 (sc), vehicle: saline): 91 % of control
T/C (dose: 0.25 mg/kg/injection, schedule: Q01DX010 (sc), vehicle: saline): 74 % of control
T/C (dose: 0.5 mg/kg/injection, schedule: Q01DX010 (sc), vehicle: saline): 205 % of control
T/C (dose: 1.0 mg/kg/injection, schedule: Q01DX010 (sc), vehicle: saline): 76 % of control

Nc1nc(/C=C(/O)c2ccccc2)c2ncn(C3OC(CO)C(O)C3O)c2n1 (stereo not given)
T/C (dose: 100.0 mg/kg/injection, schedule: Q04DX003 (sc), vehicle: distilled water + Tween-80): 111 % of control
T/C (dose: 200.0 mg/kg/injection, schedule: Q04DX003 (sc), vehicle: distilled water + Tween-80): 100 % of control
T/C (dose: 400.0 mg/kg/injection, schedule: Q04DX003 (sc), vehicle: distilled water + Tween-80): 99 % of control

C=C1C(=O)OCC1C(=O)O (stereo not given)
T/C (dose: 50.0 mg/kg/injection, schedule: Q04DX003 (sc), vehicle: suspension in saline): 123 % of control
T/C (dose: 100.0 mg/kg/injection, schedule: Q04DX003 (sc), vehicle: suspension in saline): 95 % of control
T/C (dose: 200.0 mg/kg/injection, schedule: Q04DX003 (sc), vehicle: suspension in saline): 99 % of control

CCCCCCCCCCCCCC#CC(=O)O
T/C (dose: 75.0 mg/kg/injection, schedule: Q04DX003 (sc), vehicle: saline with Tween-80): 89 % of control
T/C [1]: 112 % of control
T/C [2]: 105 % of control

C=C1C(C)C2C(Cc3ccccc3)NC(=O)C23C(OC(C)=O)C=CC(C)(O)C(=O)C(C)C/C=C/C3C1O (stereo not given)
T/C (dose: 7.5 mg/kg/injection, schedule: Q04DX003 (sc), vehicle: Klucel (hydroxypropylcellulose) (HPC)): 54 % of control
T/C (dose: 15.0 mg/kg/injection, schedule: Q04DX003 (sc), vehicle: Klucel (hydroxypropylcellulose) (HPC)): 75 % of control

O=C(O)C1(C(=O)O)CCC1.[NH2-].[NH2-].[Pt+2]
T/C (dose: 6.25 mg/kg/injection, schedule: Q01DX010 (sc), vehicle: dextrose): 73 % of control
T/C (dose: 12.5 mg/kg/injection, schedule: Q01DX010 (sc), vehicle: dextrose): 88 % of control
T/C (dose: 25.0 mg/kg/injection, schedule: Q01DX010 (sc), vehicle: dextrose): 68 % of control

CC1(CO)C(O)CCC2(C)C1CCC1CC3CC12CCC3(O)CO (stereo not given)
T/C (dose: 6.25 mg/kg/injection, schedule: Q01DX010 (sc), vehicle: saline with Tween-80): 181 % of control
T/C (dose: 12.5 mg/kg/injection, schedule: Q01DX010 (sc), vehicle: saline with Tween-80): 58 % of control
T/C (dose: 25.0 mg/kg/injection, schedule: Q01DX010 (sc), vehicle: saline with Tween-80): 78 % of control
T/C (dose: 600.0 mg/kg/injection, schedule: Q01DX010 (sc), vehicle: saline with Tween-80): 67 % of control

NS(=O)(=O)OCCCCCCCOS(N)(=O)=O
T/C (dose: 150.0 mg/kg/injection, schedule: Q04DX003 (ip), vehicle: saline with Tween-80): 109 % of control
T/C (dose: 300.0 mg/kg/injection, schedule: Q04DX003 (ip), vehicle: saline with Tween-80): 123 % of control

CCCC(=O)O.CCCC(=O)O.CCCC(=O)O.CCCC(=O)O.[Rh].[Rh]
T/C (dose: 2.0 mg/kg/injection, schedule: Q04DX003 (sc), vehicle: suspension in saline): 48 % of control
T/C (dose: 4.0 mg/kg/injection, schedule: Q04DX003 (sc), vehicle: suspension in saline): 51 % of control
T/C (dose: 8.0 mg/kg/injection, schedule: Q04DX003 (sc), vehicle: suspension in saline): 42 % of control
T/C (dose: 16.0 mg/kg/injection, schedule: Q04DX003 (sc), vehicle: suspension in saline): 55 % of control

C=CCNc1nc2c(s1)CCc1cc(OC)c(OC)cc1-2
T/C [1]: 89 % of control

CNc1cccnc1/C=N/NC(N)=S
T/C [2]: 94 % of control
T/C (dose: 600.0 mg/kg/injection, schedule: Q04DX003 (sc), vehicle: saline with Tween-80): 57 % of control
T/C (dose: 1200.0 mg/kg/injection, schedule: Q04DX003 (sc), vehicle: saline with Tween-80): 67 % of control
T/C (dose: 2400.0 mg/kg/injection, schedule: Q04DX003 (sc), vehicle: saline with Tween-80): 75 % of control

CC(=O)OCc1cc(=O)n(C)c2c3c4c(cc12)c(C)cc(=O)n4CO3
T/C (dose: 25.0 mg/kg/injection, schedule: Q01DX010 (sc), vehicle: Klucel (hydroxypropylcellulose) (HPC)): 113 % of control
T/C (dose: 50.0 mg/kg/injection, schedule: Q01DX010 (sc), vehicle: Klucel (hydroxypropylcellulose) (HPC)): 83 % of control and 222 % of control
T/C (dose: 200.0 mg/kg/injection, schedule: Q01DX010 (sc), vehicle: Klucel (hydroxypropylcellulose) (HPC)): 93 % of control and 105 % of control

O=C1C=CC(n2cc(F)c(=O)[nH]c2=O)O1 (stereo not given)
T/C (dose: 25.0 mg/kg/injection, schedule: Q04DX003 (sc), vehicle: Klucel (hydroxypropylcellulose) (HPC)): 57 % of control
T/C (dose: 50.0 mg/kg/injection, schedule: Q04DX003 (sc), vehicle: Klucel (hydroxypropylcellulose) (HPC)): 60 % of control
T/C (dose: 100.0 mg/kg/injection, schedule: Q04DX003 (sc), vehicle: Klucel (hydroxypropylcellulose) (HPC)): 46 % of control
